The nature of data set [1]: Zeta potential analysis of mancozeb dispersions with and without polycations (Zetasizer Nano). The format is physicochemical. From the text:
Zeta potential is an indicator for complexation and stability of a dispersion. A zeta potential close to zero between −10 mV and +10 Mv indicates a maximum interaction between polyelectrolytes and MZ. The Zeta potential is the charge that develops at the interface between a solid surface and its liquid medium. Zeta potential values give a value of the net charge (in mV) on particle surfaces.
To a 1 g/l aqueous polycation solution (chitosan (CTS), ϵ-poly-L-lysine or polyallylamine (PAA)), 5, 40, 60, 80 and 120 g/l of MZ powder was added, resulting in ratios 1:5, 1:40, 1:60, 1:80 and 1:120 (based on weigh/weight % of dry material), respectively. Mancozeb added to an aqueous solution served as a control. The dispersions were mixed for 10 min on a vortexing device.
The different polycation-mancozeb incubations were analyzed for the Zeta potential with a Zetasizer Nano (Malvern Instruments. United Kingdom).

The conditions of data set [2]: at 20° C.; cited from earlier work.

`S=C([S-])NCCNC(=S)[S-].[Mn+2].[Zn]` [Mancozeb, zinc; manganese(2+); N-[2-(sulfidocarbothioylamino)ethyl]carbamodithioate]: the zeta potential is listed as −18.2 mV in data set [1] (ratio polycation:mancozeb 1:5); −20.6 mV in data set [1] (ratio polycation:mancozeb 1:40); −20.5 mV in data set [1] (ratio polycation:mancozeb 1:60); −18.9 mV in data set [1] (ratio polycation:mancozeb 1:80); −18.3 mV in data set [1] (ratio polycation:mancozeb 1:120). The solubility result in data set [2] was “about 6.2 mg per liter”.

The values above are taken from US20220217980A1, “DITHIOCARBAMATE FUNGICIDE MACROMOLECULAR COMPLEXES” (Adama Makhteshim Ltd., priority 2019, published 2022).
